Results from the NIST ThermoML archive (doi:10.1016/j.jct.2019.05.021).

Test: xn = mol fraction of the nth substance listed
Conditions: 100 kPa, Liquid; for viscosity: Falling or rolling sphere viscometry; for mass density: Vibrating tube method

CCCCCCCCCC(=O)OC [methyl decanoate] + CC1CCCCC1
Conditions	mass density [kg/m3]	viscosity [mPa·s]
293.15 K, x2 = 0	872.25	2.125
293.15 K, x2 = 0.0999	865.57	1.953
293.15 K, x2 = 0.2	858.32	1.783
293.15 K, x2 = 0.3	850.46	1.618
293.15 K, x2 = 0.4001	841.94	1.464
293.15 K, x2 = 0.4998	832.57	1.316
293.15 K, x2 = 0.5999	822.32	1.177
293.15 K, x2 = 0.6999	811	1.051
293.15 K, x2 = 0.8	798.51	0.933
293.15 K, x2 = 0.9	784.68	0.825
298.15 K, x2 = 0	868.16	1.909
298.15 K, x2 = 0.0999	861.49	1.758
298.15 K, x2 = 0.2	854.23	1.613
298.15 K, x2 = 0.3	846.38	1.473
298.15 K, x2 = 0.4001	837.84	1.339
298.15 K, x2 = 0.4998	828.47	1.209
298.15 K, x2 = 0.5999	818.2	1.084
298.15 K, x2 = 0.6999	806.84	0.969
298.15 K, x2 = 0.8	794.31	0.862
298.15 K, x2 = 0.9	780.43	0.765
303.15 K, x2 = 0	864.06	1.738
303.15 K, x2 = 0.0999	857.38	1.603
303.15 K, x2 = 0.2	850.12	1.474
303.15 K, x2 = 0.3	842.25	1.35
303.15 K, x2 = 0.4001	833.72	1.232
303.15 K, x2 = 0.4998	824.32	1.12
303.15 K, x2 = 0.5999	814.03	1.012
303.15 K, x2 = 0.6999	802.63	0.907
303.15 K, x2 = 0.8	790.09	0.807
303.15 K, x2 = 0.9	776.16	0.716
308.15 K, x2 = 0	859.96	1.588
308.15 K, x2 = 0.0999	853.28	1.47
308.15 K, x2 = 0.2	846.01	1.357
308.15 K, x2 = 0.3	838.14	1.247
308.15 K, x2 = 0.4001	829.57	1.142
308.15 K, x2 = 0.4998	820.17	1.038
308.15 K, x2 = 0.5999	809.84	0.937
308.15 K, x2 = 0.6999	798.43	0.843
308.15 K, x2 = 0.8	785.85	0.754
308.15 K, x2 = 0.9	771.88	0.673
313.15 K, x2 = 0	855.85	1.453
313.15 K, x2 = 0.0999	849.16	1.351
313.15 K, x2 = 0.2	841.89	1.251
313.15 K, x2 = 0.3	834.02	1.152
313.15 K, x2 = 0.4001	825.43	1.057
313.15 K, x2 = 0.4998	816.01	0.963
313.15 K, x2 = 0.5999	805.67	0.872
313.15 K, x2 = 0.6999	794.22	0.787
313.15 K, x2 = 0.8	781.6	0.707
313.15 K, x2 = 0.9	767.57	0.631
318.15 K, x2 = 0	851.74	1.341
318.15 K, x2 = 0.0999	845.04	1.252
318.15 K, x2 = 0.2	837.76	1.161
318.15 K, x2 = 0.3	829.87	1.072
318.15 K, x2 = 0.4001	821.28	0.986
318.15 K, x2 = 0.4998	811.84	0.904
318.15 K, x2 = 0.5999	801.47	0.822
318.15 K, x2 = 0.6999	789.99	0.743
318.15 K, x2 = 0.8	777.33	0.668
318.15 K, x2 = 0.9	763.25	0.598
323.15 K, x2 = 0	847.62	1.245
323.15 K, x2 = 0.0999	840.91	1.163
323.15 K, x2 = 0.2	833.62	1.083
323.15 K, x2 = 0.3	825.72	1.003
323.15 K, x2 = 0.4001	817.11	0.925
323.15 K, x2 = 0.4998	807.66	0.847
323.15 K, x2 = 0.5999	797.25	0.772
323.15 K, x2 = 0.6999	785.75	0.7
323.15 K, x2 = 0.8	773.05	0.632
323.15 K, x2 = 0.9	758.92	0.567

CCCCCCCCCCCC(=O)OC [methyl dodecanoate] + CC1CCCCC1
Conditions	mass density [kg/m3]	viscosity [mPa·s]
293.15 K, x2 = 0	869.3	3.151
293.15 K, x2 = 0.1	863.68	2.838
293.15 K, x2 = 0.2	857.47	2.545
293.15 K, x2 = 0.3	850.62	2.264
293.15 K, x2 = 0.4001	842.9	2
293.15 K, x2 = 0.5001	834.34	1.743
293.15 K, x2 = 0.6	824.66	1.501
293.15 K, x2 = 0.6999	813.62	1.28
293.15 K, x2 = 0.8	801	1.071
293.15 K, x2 = 0.8999	786.46	0.887
298.15 K, x2 = 0	865.39	2.792
298.15 K, x2 = 0.1	859.76	2.527
298.15 K, x2 = 0.2	853.54	2.28
298.15 K, x2 = 0.3	846.68	2.041
298.15 K, x2 = 0.4001	838.94	1.811
298.15 K, x2 = 0.5001	830.36	1.587
298.15 K, x2 = 0.6	820.65	1.373
298.15 K, x2 = 0.6999	809.56	1.177
298.15 K, x2 = 0.8	796.88	0.992
298.15 K, x2 = 0.8999	782.25	0.825
303.15 K, x2 = 0	861.46	2.504
303.15 K, x2 = 0.1	855.83	2.279
303.15 K, x2 = 0.2	849.6	2.06
303.15 K, x2 = 0.3	842.72	1.85
303.15 K, x2 = 0.4001	834.97	1.646
303.15 K, x2 = 0.5001	826.36	1.448
303.15 K, x2 = 0.6	816.61	1.261
303.15 K, x2 = 0.6999	805.48	1.087
303.15 K, x2 = 0.8	792.75	0.919
303.15 K, x2 = 0.8999	778.03	0.77
308.15 K, x2 = 0	857.53	2.263
308.15 K, x2 = 0.1	851.9	2.064
308.15 K, x2 = 0.2	845.67	1.876
308.15 K, x2 = 0.3	838.76	1.693
308.15 K, x2 = 0.4001	830.99	1.512
308.15 K, x2 = 0.5001	822.36	1.339
308.15 K, x2 = 0.6	812.57	1.168
308.15 K, x2 = 0.6999	801.4	1.007
308.15 K, x2 = 0.8	788.6	0.858
308.15 K, x2 = 0.8999	773.79	0.722
313.15 K, x2 = 0	853.61	2.049
313.15 K, x2 = 0.1	847.96	1.877
313.15 K, x2 = 0.2	841.71	1.714
313.15 K, x2 = 0.3	834.79	1.552
313.15 K, x2 = 0.4001	827.01	1.393
313.15 K, x2 = 0.5001	818.35	1.237
313.15 K, x2 = 0.6	808.52	1.086
313.15 K, x2 = 0.6999	797.31	0.937
313.15 K, x2 = 0.8	784.44	0.801
313.15 K, x2 = 0.8999	769.54	0.676
318.15 K, x2 = 0	849.69	1.875
318.15 K, x2 = 0.1	844.02	1.725
318.15 K, x2 = 0.2	837.77	1.581
318.15 K, x2 = 0.3	830.83	1.437
318.15 K, x2 = 0.4001	823.02	1.294
318.15 K, x2 = 0.5001	814.32	1.151
318.15 K, x2 = 0.6	804.45	1.012
318.15 K, x2 = 0.6999	793.18	0.879
318.15 K, x2 = 0.8	780.26	0.754
318.15 K, x2 = 0.8999	765.28	0.638
323.15 K, x2 = 0	845.76	1.729
323.15 K, x2 = 0.1	840.08	1.592
323.15 K, x2 = 0.2	833.81	1.461
323.15 K, x2 = 0.3	826.86	1.332
323.15 K, x2 = 0.4001	819.02	1.202
323.15 K, x2 = 0.5001	810.28	1.073
323.15 K, x2 = 0.6	800.37	0.946
323.15 K, x2 = 0.6999	789.06	0.826
323.15 K, x2 = 0.8	776.07	0.711
323.15 K, x2 = 0.8999	761	0.603
